Test [1] has as its target T1, UGT1A9 (Homo sapiens, UniProt O60656).
T1 sequence (O60656 26-530): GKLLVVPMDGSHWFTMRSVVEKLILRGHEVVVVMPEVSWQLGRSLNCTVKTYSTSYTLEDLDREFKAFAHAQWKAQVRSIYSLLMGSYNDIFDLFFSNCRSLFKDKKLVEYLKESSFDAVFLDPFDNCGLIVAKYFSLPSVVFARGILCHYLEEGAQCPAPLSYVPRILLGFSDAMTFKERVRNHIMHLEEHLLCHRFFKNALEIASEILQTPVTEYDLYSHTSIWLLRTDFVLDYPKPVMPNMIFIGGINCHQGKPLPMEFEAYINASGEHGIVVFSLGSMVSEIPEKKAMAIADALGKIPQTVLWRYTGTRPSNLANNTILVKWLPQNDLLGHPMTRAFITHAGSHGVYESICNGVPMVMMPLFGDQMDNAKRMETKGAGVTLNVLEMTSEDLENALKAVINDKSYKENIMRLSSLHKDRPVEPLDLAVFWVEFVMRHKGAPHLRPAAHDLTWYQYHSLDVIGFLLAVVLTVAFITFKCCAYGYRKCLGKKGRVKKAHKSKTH
Conditions: substrate inhibition model, propofol glucuronidation.

For test [2], the target named is T1, UGT1A9.
In test [3] the target is T2, UGT2B7 (Homo sapiens, UniProt P16662).
T2 sequence (P16662 24-529): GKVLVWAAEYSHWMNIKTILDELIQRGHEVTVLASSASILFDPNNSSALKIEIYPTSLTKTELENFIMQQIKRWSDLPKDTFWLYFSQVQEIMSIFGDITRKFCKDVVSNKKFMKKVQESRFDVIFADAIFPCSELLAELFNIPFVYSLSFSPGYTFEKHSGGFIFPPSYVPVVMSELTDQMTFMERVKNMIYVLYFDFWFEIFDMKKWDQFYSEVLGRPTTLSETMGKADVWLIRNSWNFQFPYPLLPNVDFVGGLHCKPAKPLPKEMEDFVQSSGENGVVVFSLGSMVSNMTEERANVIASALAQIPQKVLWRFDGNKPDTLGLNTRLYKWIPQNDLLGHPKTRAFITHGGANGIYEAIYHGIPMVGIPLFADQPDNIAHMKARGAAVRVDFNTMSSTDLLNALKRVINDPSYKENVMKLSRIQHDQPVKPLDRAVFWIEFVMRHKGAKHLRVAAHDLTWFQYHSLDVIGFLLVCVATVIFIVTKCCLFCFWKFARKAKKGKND
As to conditions: data not shown.

Read-outs that look alike come from different tables or passages of the source.

For `CC(C)c1cccc(C(C)C)c1O` [propofol], the Ki came to 448 ± 203 µM in test [1] (human hepatocytes treated with UGT1A9 siRNA); 199 ± 88.9 µM in test [1] (human hepatocytes treated with UGT2B7 siRNA); 362 ± 31.3 µM in test [1] (human hepatocytes, OPTI Only); 521 ± 46.3 µM in test [1] (human hepatocytes, TR Only).

With propofol glucuronide, in test [2], the UGT1A9 activity remained entry is reported as “greater than 60%” and the “inhibition of 2,6-dimethylphenol glucuronidation” value is “only weak inhibition”. Further, the “inhibition of UGT2B7-catalyzed morphine glucuronidation” value in test [3] is “No inhibition”.

(Values after paper PMC4059507 (Archives of biochemistry and biophysics, 2013).)
